The values that follow come from ChEMBL document CHEMBL5291721, “A preclinical secondary pharmacology resource illuminates target-adverse drug reaction associations of marketed drugs” (Nat Commun, 2023).

As a reminder, the AC50 is the concentration at which the activity in the assay is half-maximal. Lower therefore signals greater potency.

Where only a bound is given, the exact number is not on record here.

In test [1] the target is T1, 5-hydroxytryptamine receptor 1A (Homo sapiens, UniProt P08908).
T1 sequence (P08908 whole entry): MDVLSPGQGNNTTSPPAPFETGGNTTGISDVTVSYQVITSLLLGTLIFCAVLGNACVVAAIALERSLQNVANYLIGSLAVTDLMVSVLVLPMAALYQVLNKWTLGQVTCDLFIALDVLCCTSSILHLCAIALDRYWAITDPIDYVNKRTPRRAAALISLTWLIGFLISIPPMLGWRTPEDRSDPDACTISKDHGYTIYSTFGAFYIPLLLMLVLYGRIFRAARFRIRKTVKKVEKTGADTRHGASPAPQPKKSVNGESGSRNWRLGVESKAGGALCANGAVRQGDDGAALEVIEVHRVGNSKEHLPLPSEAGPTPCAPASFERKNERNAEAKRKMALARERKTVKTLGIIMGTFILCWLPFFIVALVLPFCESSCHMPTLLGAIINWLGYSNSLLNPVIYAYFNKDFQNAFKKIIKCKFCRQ

The target in test [2] is T2, Muscarinic acetylcholine receptor M2 (Homo sapiens, UniProt P08172).
T2 sequence (P08172 whole entry): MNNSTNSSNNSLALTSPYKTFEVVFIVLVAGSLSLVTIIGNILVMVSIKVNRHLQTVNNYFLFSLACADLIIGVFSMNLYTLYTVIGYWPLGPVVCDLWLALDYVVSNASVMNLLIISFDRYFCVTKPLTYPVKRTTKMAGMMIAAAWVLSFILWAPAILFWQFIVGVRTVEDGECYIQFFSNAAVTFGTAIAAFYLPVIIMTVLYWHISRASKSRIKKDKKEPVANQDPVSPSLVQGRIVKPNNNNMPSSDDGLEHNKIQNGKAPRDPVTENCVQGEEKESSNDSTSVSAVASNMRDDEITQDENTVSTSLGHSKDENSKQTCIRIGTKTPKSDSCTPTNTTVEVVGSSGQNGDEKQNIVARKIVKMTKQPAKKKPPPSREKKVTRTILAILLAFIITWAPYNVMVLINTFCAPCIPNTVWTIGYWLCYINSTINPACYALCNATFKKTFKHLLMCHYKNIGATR

For test [3], the target named is T3, Muscarinic acetylcholine receptor M1 (Homo sapiens, UniProt P11229).
T3 sequence (P11229 whole entry): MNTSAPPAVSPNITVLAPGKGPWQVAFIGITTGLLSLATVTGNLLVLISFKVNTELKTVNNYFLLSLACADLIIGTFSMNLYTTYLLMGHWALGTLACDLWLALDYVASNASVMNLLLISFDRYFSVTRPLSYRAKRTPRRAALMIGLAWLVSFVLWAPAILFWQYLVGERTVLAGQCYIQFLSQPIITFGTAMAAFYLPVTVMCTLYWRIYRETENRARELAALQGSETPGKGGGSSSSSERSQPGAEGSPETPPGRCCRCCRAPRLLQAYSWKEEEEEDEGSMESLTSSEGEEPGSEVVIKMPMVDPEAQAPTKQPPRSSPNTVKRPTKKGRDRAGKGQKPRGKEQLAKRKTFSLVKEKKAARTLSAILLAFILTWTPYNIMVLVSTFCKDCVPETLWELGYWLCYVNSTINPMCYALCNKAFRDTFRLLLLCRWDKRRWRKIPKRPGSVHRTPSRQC
The class given is functional, cell-based.

For test [4], the target named is T4, Thromboxane A2 receptor (Homo sapiens, UniProt P21731).
T4 sequence (P21731 whole entry): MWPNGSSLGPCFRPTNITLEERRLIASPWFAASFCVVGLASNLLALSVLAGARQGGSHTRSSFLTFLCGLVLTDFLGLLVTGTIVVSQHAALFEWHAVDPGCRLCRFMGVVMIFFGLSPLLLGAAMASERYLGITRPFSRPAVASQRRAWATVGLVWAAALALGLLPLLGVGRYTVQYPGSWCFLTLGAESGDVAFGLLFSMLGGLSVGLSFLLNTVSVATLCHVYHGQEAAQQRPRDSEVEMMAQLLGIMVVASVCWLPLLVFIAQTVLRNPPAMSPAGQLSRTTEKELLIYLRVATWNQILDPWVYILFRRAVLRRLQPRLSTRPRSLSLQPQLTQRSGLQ
Format: functional, cell-based.

Test [5] has as its target T4, Thromboxane A2 receptor. Format: functional.
Further: assay procedure not described here.

With `COc1ccccc1N1CCN(CCCNc2cc(=O)n(C)c(=O)n2C)CC1`, in test [1], the AC50 came to 0.26 µM.
On to `CC(C[N+](C)(C)C)OC(N)=O` (stereo not given) [BETHANECHOL], for which the AC50 in test [2] was over 30 µM; in test [3], 26 µM.
Turning to `CC(C)OC(=O)CCC/C=C\C[C@@H]1[C@@H](CC[C@@H](O)CCc2ccccc2)[C@H](O)C[C@@H]1O` [LATANOPROST], the concentration at half-maximal activity (AC50) in test [4] and in test [5] was over 10 µM each time.
